Data: US12691070B2, “Cationic lipids and preparation method thereof” (RiboX Therapeutics HK Limited, priority 2023, dated 2026)

How the values were obtained:
[1] = LNP size and polydispersity index (PDI) by dynamic light scattering; assay type: physicochemical; details: for Size: in nm (unit assumed)
Outline: (§1)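 Dynamic light scattering and zeta potential measurements were run on PBS-dialyzed LNPs, which had been formed by microfluidic mixing at 12 ml/min with final lipid at 1.5 mM to 6 mM. RNA content and percent encapsulation were determined by Ribogreen with and without Triton X-100.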

[2] = LNP zeta potential (Zetasizer); assay type: physicochemical
Outline: as §1

[3] = RNA encapsulation efficacy by Quant-IT Ribogreen kit; assay type: physicochemical; details: for Encapsulation Efficiency %: LNP with cirRNA (SEQ ID NO: 1); for Encapsulation Efficiency: LNP with mRNA (SEQ ID NO: 2)
Outline: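 Ribogreen fluorescence with and without Triton X-100 gave encapsulation as 100% − (intact/lysed) signal; DLS size, PDI and zeta potential measured on a Zetasizer. Particles: 50:10:38.5:1.5 lipid mix, luciferase circRNA or mRNA, lipid:nucleotide 15 or 6, microfluidic assembly at pH 4.5, PBS-dialyzed.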

Hep G2 cells [4] = assay: In vitro expression of firefly-luciferase, Hep G2; assay type: cell-based
Outline: (§2)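 Luminescence from cell lysates reports expression: luciferase activity was measured 72 h after transfection with 100 ng/mL RNA-LNPs encoding firefly luciferase.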

RAW 264.7 cells [5] = assay: In vitro expression of firefly-luciferase, RAW 264.7; assay type: cell-based
Outline: as §2

Hep G2 cells [6] = assay: In vitro toxicity (CellTiter-Glo cell viability), Hep G2; assay type: cell-based;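 also: percent of untreated cells luminescence signal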
Outline: (§3)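 Luminescent ATP read-out (CellTiter-Glo) gives the viability value, taken 72 h after cells were exposed to RNA-loaded lipid nanoparticles at 1 μg/mL.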

RAW 264.7 cells [7] = assay: In vitro toxicity (CellTiter-Glo cell viability), RAW 264.7; assay type: cell-based;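 also: percent of untreated cells luminescence signal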
Outline: as §3

BALB/C mice [8] = assay: In vivo expression, whole-body luminescence (IVIS)
Description: 6-8 week old, female BALB/C mice were injected with 0.05 mg*kg-1 of RNA-LNPs encoding for firefly-luciferase by intravenous injection. At 6 hours post injection, animals were intraperitoneally injected with 15 mg/ml of Luciferin substrate and whole-body luminescence was determined by a bioluminescent in vivo imaging system (IVIS).

MCP-I = MCP-I cytokine elevation in serum; assay type: in vivo; details: cirRNA (SEQ ID NO: 1) LNPs, mice
Description: 6-8 week old, female BALB/C mice were injected with 0.5 mg*kg-1 of RNA LNPs by intravenous injection. At 2 and 24 hours post injection, animals were bled and sera concentrations of MCP-I were determined by an immunoassay (Luminex).

[9] = test system: Alanine Aminotransferase (ALT); assay: Liver enzyme elevation in serum, ALT; assay type: in vivo; details: cirRNA (SEQ ID NO: 1) LNPs, BALB/C mice, intravenous 0.5 MPK
Description: (§4) 6-8 week old, female BALB/C mice were injected with 0.5 mg*kg-1 of RNA LNPs by intravenous injection. At 2 and 24 hours post injection, animals were bled and sera concentrations of Alanine Aminotransferase (ALT) and Aspartate Aminotransferase (AST) were determined by a blood chemistry analyzer.

[10] = test system: Aspartate Aminotransferase (AST); assay: Liver enzyme elevation in serum, AST; assay type: in vivo; details: cirRNA (SEQ ID NO: 1) LNPs, BALB/C mice, intravenous 0.5 MPK
Description: as §4

BALB/C mice [11] = assay: Local tolerance determination by footpad injection; assay type: in vivo; details: cirRNA (SEQ ID NO: 1) LNP, 0.175 mg*kg-1 subcutaneous into the footpad, 24 hours post minus prior
Description: 6-8 week old, female BALB/C mice were injected with 0.175 mg*kg-1 RNA LNPs by subcutaneous injection into the footpad. Prior to, and 24 hours post injections, injected footpad thickness was determined by a caliper.

[12] = cirRNA (SEQ ID NO: 1) LNPs, firefly-luciferase luminescence, Hep G2 cells
[13] = mRNA (SEQ ID NO: 2) LNP, 100 ng/mL, 72 hours post transfection, luciferase activity
[14] = cirRNA (SEQ ID NO: 1) LNPs, firefly-luciferase luminescence, RAW 264.7 cells
[15] = cirRNA (SEQ ID NO: 1) LNPs, Hep G2 cells
[16] = mRNA (SEQ ID NO: 2) LNP, 1 μg/mL, 72 hours post transfection
[17] = cirRNA (SEQ ID NO: 1) LNPs, RAW 264.7 cells
[18] = cirRNA (SEQ ID NO: 1) LNPs, BALB/C mice
[19] = mRNA (SEQ ID NO: 2) LNP, 0.05 mg*kg-1 intravenous, 6 hours post injection

Row | Structure (SMILES) | PDI ([1]; LNP with cirRNA (SEQ ID NO: 1)) | Size ([1]; LNP with cirRNA (SEQ ID NO: 1)) | PDI ([1]; LNP with mRNA (SEQ ID NO: 2)) | Size ([1]; LNP with mRNA (SEQ ID NO: 2)) | Zeta (mV) ([2]; LNP with cirRNA (SEQ ID NO: 1)) | Zeta (mV) ([2]; LNP with mRNA (SEQ ID NO: 2)) | Encapsulation Efficiency % [3] [%] | Encapsulation Efficiency [3] [%] | In vitro Expression HepG2 (Hep G2 cells [4]; [12]) | In vitro Expression HepG2 (Hep G2 cells [4]; [13]) | In vitro Expression RAW (RAW 264.7 cells [5]; [14]) | In vitro Expression RAW (RAW 264.7 cells [5]; [13]) | In vitro Viability HepG2 (Hep G2 cells [6]; [15]) [%] | In vitro Viability HepG2 (Hep G2 cells [6]; [16]) [%] | In vitro Viability RAW (RAW 264.7 cells [7]; [17]) [%] | In vitro Viability RAW (RAW 264.7 cells [7]; [16]) [%] | In vivo Expression (Whole Body) (BALB/C mice [8]; [18]) | In vivo Expression (Whole Body) (BALB/C mice [8]; [19]) | MCP-I in Sera 2 hours After 0.5 MPK Injection (MCP-I) [pg/mL] | MCP-I in Sera 24 hours After 0.5 MPK Injection (MCP-I) [pg/mL] | other results
1 | CCCCCCCCC(CCCCCCCC)OC(=O)CCCCCCCN(CCCCCCCCOC(=O)C(CCCCCC)CCCCCCCC)CCOC(=O)NCCN1CCCC1 (centres unmarked) [Lipid 148, 8-((8-(heptadecan-9-yloxy)-8-oxooctyl)(2-(((2-(pyrrolidin-1-yl)ethyl)carbamoyl)oxy)ethyl)amino)octyl 2-hexyldecanoate] | 0.03 | 93.46 | 0.07065 | 122.1 | −2.35 | 3.769 | 95 | 93.50 | 2.35E+06 | 6.39E+02 | 2.40E+05 | 8.69E+05 | 47 | 128 | 21 | 102 | 5.07E+08 | 1.69E+09 | 6709.61 | 69.59 | ALT in Sera (IU/L) 2 hours After 0.5 MPK Injection [9]: 53.60 IU/L; ALT in Sera (IU/L) 24 hours After 0.5 MPK Injection [9]: 59.93 IU/L; AST in Sera (IU/L) 2 hours After 0.5 MPK Injection [10]: 136.17 IU/L; AST in Sera (IU/L) 24 hours After 0.5 MPK Injection [10]: 108.13 IU/L; Footpad Thickness (24 h−0 h, mm) (BALB/C mice [11]): 0.23 mm
2 | CCCCCCCCCCCOC(=O)CCCCCN(CCCCCCCC(=O)OC(CCCCCCCC)CCCCCCCC)CCOC(=O)NCCN1CCCCC1 [Lipid 165] | 0.05 | 90.53 | 0.1265 | 98.24 | −1.76 | −0.3264 | 91 | 86.43 | 7.20E+05 | 3.27E+06 | 5.29E+04 | 6.06E+05 | 94 | 93 | 88 | 101 | 1.11E+08 | 1.63E+08 | 127.19 | 113.67 | ALT in Sera (IU/L) 2 hours After 0.5 MPK Injection [9]: 63.90 IU/L; ALT in Sera (IU/L) 24 hours After 0.5 MPK Injection [9]: 61.47 IU/L; AST in Sera (IU/L) 2 hours After 0.5 MPK Injection [10]: 128.43 IU/L; AST in Sera (IU/L) 24 hours After 0.5 MPK Injection [10]: 99.03 IU/L; Footpad Thickness (24 h−0 h, mm) (BALB/C mice [11]): 0.32 mm
